# In US20190110476A1, “NOVEL ISOTHIAZOLAMIDES, PROCESSES FOR THEIR PREPARATION AND THEIR USE AS FUNGICIDES” (priority 2014, published 2019):
# Marks after values point to notes of the source that are not given here.
# Experiment: Measurement of LogP values by HPLC on reversed phase columns (EEC directive 79/831 Annex V.A8)
# Format: physicochemical
# Procedure, shortened: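 Following EEC directive 79/831 Annex V.A8, lipophilicity was derived from retention on reversed-phase HPLC columns. Separate values are given per diastereoisomer, and UV lambda-max (200–400 nm) was read at the peak signals.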
row,SMILES,LogP
1,CC(c1cc(Cl)cc(Cl)c1)N(C(=O)c1snc(N)c1Cl)C1CC1 (centres unmarked) [I-952],3.70[a]
2,CC(c1ccc(Cl)cc1Cl)N(C(=O)c1snc(N)c1Cl)C1CC1 (centres unmarked) [I-953],3.50[a]
3,CCC(c1ccc(Cl)cc1Cl)N(C(=O)c1snc(N)c1Cl)C1CC1 (centres unmarked) [I-954],3.90[a]
4,CCC(c1cc(Cl)cc(Cl)c1)N(C(=O)c1snc(N)c1Cl)C1CC1 (centres unmarked) [I-955],4.17[a]
5,CC(c1cccc(C(F)(F)F)c1)N(C(=O)c1snc(N)c1Cl)C1CC1 (centres unmarked) [I-956],3.29[a]
6,CC(c1ccccc1C(F)(F)F)N(C(=O)c1snc(N)c1Cl)C1CC1 (centres unmarked) [I-957],3.13[a]
7,Nc1nsc(C(=O)N(c2ccc(F)cc2F)C2CC2)c1Cl [I-958],2.39[a]
8,Nc1nsc(C(=O)N(c2cc(F)cc(F)c2)C2CC2)c1Cl [I-959],2.48[a]
9,O=C(Nc1ccc(Cl)cc1Cl)c1snc(N(Cc2ccccc2)Cc2ccccc2)c1Br [I-960],7.15[a]
10,Nc1nsc(C(=O)NCCc2ncc(C(F)(F)F)cc2Cl)c1Br [I-964],2.55[a]
11,Cc1ccc(NC(=O)c2snc(N)c2Br)cc1Cl [I-965],2.88[a]
12,Nc1nsc(C(=O)NCCc2ccc(F)cc2)c1Cl [I-966],2.13[a]
13,Nc1cc(C(=O)N(Cc2ccc(Cl)cc2Cl)C2CC2)sn1 [I-967],2.90[a]
14,Nc1cc(C(=O)N(Cc2c(Cl)cccc2Cl)C2CC2)sn1 [I-968],2.53[a]
15,CC1(C)CC1N(Cc1ccc(Cl)cc1Cl)C(=O)c1cc(N)ns1 (centres unmarked) [I-969],3.48[a]
16,Nc1cc(C(=O)N(Cc2cc(Cl)cc(C(F)(F)F)c2)C2CC2)sn1 [I-970],3.11[a]
17,Nc1nsc(C(=O)NCCc2ccc(Cl)cc2)c1Cl [I-971],2.46[a]
18,Nc1nsc(C(=O)NCCc2ccccc2F)c1Cl [I-972],2.11[a]
19,CC(C)N(C(=O)c1snc(NC(=O)C(C)(C)C)c1Cl)C(C)C [I-974],2.80[a]
20,CC(=O)N(C(C)=O)c1nsc(C(=O)N(C(C)C)C(C)C)c1Cl [I-975],2.77[a]

row,SMILES,LogP
1,Cc1cc(C)c(CN(C(=O)c2cc(N)ns2)C2CC2)c(C)c1 [I-977],2.86[a]
2,Nc1cc(C(=O)N(Cc2ccccc2)C2CC2)sn1 [I-978],2.02[a]
3,CC(c1cc(Cl)cc(Cl)c1)N(C(=O)c1cc(N)ns1)C1CC1 (centres unmarked) [I-979],3.19[a]
4,Nc1nsc(C(=O)N(C2CCCCC2)C2CC2)c1Cl [I-980],2.78[a]
5,O=C(NCCc1ccccc1)c1snc(N(Cc2ccccc2)Cc2ccccc2)c1-c1ccc(F)cc1 [I-983],5.68[a]
6,CCC(C)CNC(=O)c1cc(N)ns1 (centres unmarked) [I-984],1.44[a]
7,CC(C)CNC(=O)c1cc(N)ns1 [I-985],1.07[a]
8,COc1ccc(CNc2nsc(C(=O)N(Cc3cc(C)ccc3F)C3CC3)c2Cl)cc1 [I-986],4.46[a]
9,COc1ccc(CNc2nsc(C(=O)N(Cc3cc(F)ccc3F)C3CC3)c2Cl)cc1 [I-987],4.15[a]
10,COc1ccc(CNc2nsc(C(=O)N(Cc3cc(Cl)ccc3F)C3CC3)c2Cl)cc1 [I-988],4.49[a]
11,COc1ccc(CNc2nsc(C(=O)N(Cc3cc(Cl)ccc3Br)C3CC3)c2Cl)cc1 [I-989],4.98[a]
12,Cc1ccc(F)c(CN(C(=O)c2cc(N(Cc3ccccc3)Cc3ccccc3)ns2)C2CC2)c1 [I-990],5.56[a]
13,O=C(c1cc(N(Cc2ccccc2)Cc2ccccc2)ns1)N(Cc1cc(F)ccc1F)C1CC1 [I-991],5.25[a]
14,O=C(c1cc(N(Cc2ccccc2)Cc2ccccc2)ns1)N(Cc1cc(Cl)ccc1F)C1CC1 [I-992],5.59[a]
15,O=C(c1cc(N(Cc2ccccc2)Cc2ccccc2)ns1)N(Cc1cc(Cl)ccc1Br)C1CC1 [I-993],6.11[a]
16,Nc1nsc(C(=O)NCCc2ccccc2)c1-c1ccc(F)cc1 [I-994],2.59[a]
17,Cc1ccc(F)c(CN(C(=O)c2cc(N)ns2)C2CC2)c1 [I-995],2.44[a]
18,Cc1ccc(F)c(CN(C(=O)c2cc(NCc3ccccc3)ns2)C2CC2)c1 [I-996],4.01[a]
19,Nc1cc(C(=O)N(Cc2cc(F)ccc2F)C2CC2)sn1 [I-997],2.18[a]
20,O=C(c1cc(NCc2ccccc2)ns1)N(Cc1cc(F)ccc1F)C1CC1 [I-998],3.74[a]

row,SMILES,LogP
1,Nc1cc(C(=O)N(Cc2cc(Cl)ccc2F)C2CC2)sn1 [I-999],2.49[a]
2,O=C(c1cc(NCc2ccccc2)ns1)N(Cc1cc(Cl)ccc1F)C1CC1 [I-1000],4.06[a]
3,Nc1cc(C(=O)N(Cc2cc(Cl)ccc2Br)C2CC2)sn1 [I-1001],2.84[a]
4,O=C(c1cc(NCc2ccccc2)ns1)N(Cc1cc(Cl)ccc1Br)C1CC1 [I-1002],4.51[a]
5,COc1ccc(CNc2nsc(C(=O)N(Cc3ccc(F)cc3F)C3CC3)c2Cl)c(OC)c1 [I-1012],4.46[a]
6,CCC(C)CNC(=O)c1snc(N)c1Cl (centres unmarked) [I-1014],1.98[a]
7,Nc1nsc(C(=S)NCc2c(F)cc(F)cc2F)c1Cl [I-1015],2.86[a]
8,Nc1nsc(C(=S)NCc2ccc(F)cc2F)c1Cl [I-1016],2.74[a]
9,CC(C)CNC(=O)c1snc(N)c1Cl [I-1018],1.55[a]
10,Nc1nsc(C(=S)NCc2ccccc2F)c1Cl [I-1021],2.73[a]
11,CCC(C)CNC(=S)c1snc(N)c1Cl (centres unmarked) [I-1022],2.87[a]
12,Nc1nsc(C(=S)NCc2ccc(Cl)cc2)c1Cl [I-1026],3.12[a]
13,COc1ccc(CNc2nsc(C(=O)NOc3ccccc3)c2Cl)cc1 [I-1031],3.17[a]
14,Nc1nsc(C(=O)NOc2ccccc2)c1Cl [I-1033],1.53[a]
15,COc1ccc(CNc2nsc(C(=O)NC(Cc3ccccc3)C3CCCCC3)c2Cl)cc1 (centres unmarked) [I-1079],5.10[b]
16,Nc1nsc(C(=O)NC(Cc2ccccc2)C2CCCCC2)c1Cl (centres unmarked) [I-1095],3.55[b]
17,COc1ccc(CNc2nsc(C(=O)NC(c3ccccc3C)C(C)C)c2Cl)cc1 (centres unmarked) [I-1192],4.69[a]
18,COc1ccc(CNc2nsc(C(=O)NC(C)c3ccccc3F)c2Cl)cc1 (centres unmarked) [I-1212],3.79[a]
19,COc1ccc(CNc2nsc(C(=O)NCc3ccc(OC(F)F)cc3)c2Cl)cc1 [I-1229],3.63[a]
20,COc1ccc(CNc2nsc(C(=O)NCc3cc(OC)ccc3OC)c2Cl)cc1 [I-1230],3.59[a]

# Next, values leading:
row,LogP,SMILES
1,3.72[a],COc1ccc(CNc2nsc(C(=O)NCCc3ccc(F)cc3)c2Cl)cc1 [I-961]
2,4.08[a],COc1ccc(CNc2nsc(C(=O)NCCc3ccc(Cl)cc3)c2Cl)cc1 [I-962]
3,3.74[a],COc1ccc(CNc2nsc(C(=O)NCCc3ccccc3F)c2Cl)cc1 [I-963]
4,3.83[a],COc1ccc(CNc2nsc(C(=O)NC(=O)C3CCCCC3)c2Cl)cc1 [I-982]
5,4.83[b],CCC(NC(=O)c1snc(NCc2ccc(OC)cc2)c1Cl)C1CCCCC1 (centres unmarked) [I-1170]
6,1.54[a],COc1ccc(CNc2nsc(C(=O)NC(C)c3ccncc3)c2Cl)cc1 (centres unmarked) [I-1189]
7,2.50[a],COc1ccc(CNc2nsc(C(=O)NC3CCOCC3)c2Cl)cc1 [I-1190]
8,6.02[a],CCC1CC(C)CC(CC)C1NC(=O)c1snc(NCc2ccc(OC)cc2)c1Cl (centres unmarked) [I-1191]
9,2.34[a],CCc1ccc(CNC(=O)c2snc(NCc3ccc(OC)cc3)c2Cl)nc1 [I-1193]
10,2.53[a],COc1ccc(CNc2nsc(C(=O)NCCCn3cccn3)c2Cl)cc1 [I-1194]
11,3.15[a],COc1ccc(CNc2nsc(C(=O)NC3CCC3)c2Cl)cc1 [I-1195]
12,2.59[a],COc1ccc(CNc2nsc(C(=O)NCCC3CCOC3)c2Cl)cc1 (centres unmarked) [I-1196]
13,2.57[a],COc1ccc(CNc2nsc(C(=O)NC(C)c3ccccn3)c2Cl)cc1 (centres unmarked) [I-1197]
14,3.09[a],CCn1cc(CNC(=O)c2snc(NCc3ccc(OC)cc3)c2Cl)c(C(F)F)n1 [I-1198]
15,4.69[a],COc1ccc(CNc2nsc(C(=O)NCc3ccc(C(C)(C)C)cc3)c2Cl)cc1 [I-1199]
16,2.68[a],COc1ccc(CNc2nsc(C(=O)NCC3COCC3C)c2Cl)cc1 (centres unmarked) [I-1200]
17,3.61[a],COc1ccc(CNc2nsc(C(=O)NCc3cscc3C)c2Cl)cc1 [I-1201]
18,3.02[a],CCC(NC(=O)c1snc(NCc2ccc(OC)cc2)c1Cl)c1cn(CC)nc1C (centres unmarked) [I-1202]

row,LogP,SMILES
1,2.80[a],COc1ccc(CNc2nsc(C(=O)NCc3nc(C)cs3)c2Cl)cc1 [I-1203]
2,2.78[a],COc1ccc(CNc2nsc(C(=O)NCc3ccnc(OC)c3)c2Cl)cc1 [I-1204]
3,2.48[a],CCn1cc(CNC(=O)c2snc(NCc3ccc(OC)cc3)c2Cl)cn1 [I-1205]
4,5.00[a],COc1ccc(CNc2nsc(C(=O)NC3CC(C)CC(C)(C)C3)c2Cl)cc1 (centres unmarked) [I-1206]
5,4.69[a],COc1ccc(CNc2nsc(C(=O)NC(C)c3ccc(C(C)C)cc3)c2Cl)cc1 (centres unmarked) [I-1207]
6,3.72[a],COc1ccc(CNc2nsc(C(=O)NCC3OCCc4ccccc43)c2Cl)cc1 (centres unmarked) [I-1208]
7,3.99[a],C#CC1(NC(=O)c2snc(NCc3ccc(OC)cc3)c2Cl)CCCCC1 [I-1209]
8,4.46[a],COc1ccc(CNc2nsc(C(=O)NC3CCCC(C)C3C)c2Cl)cc1 (centres unmarked) [I-1210]
9,3.15[a],COc1ccc(CNc2nsc(C(=O)NCc3cccn3C)c2Cl)cc1 [I-1211]
10,1.35[a],COc1ccc(CNc2nsc(C(=O)NCc3cncn3C)c2Cl)cc1 [I-1213]
11,2.57[a],CCn1nc(C)c(CNC(=O)c2snc(NCc3ccc(OC)cc3)c2Cl)c1C [I-1214]
12,4.49[a],CCC1CCCCC1NC(=O)c1snc(NCc2ccc(OC)cc2)c1Cl (centres unmarked) [I-1215]
13,5.24[a],COc1ccc(CNc2nsc(C(=O)NC3CCC4CCCCC4C3)c2Cl)cc1 (centres unmarked) [I-1216]
14,2.69[a],COc1ccc(CNc2nsc(C(=O)NCc3csc(C)n3)c2Cl)cc1 [I-1217]
15,4.30[a],COc1ccc(CNc2nsc(C(=O)NC3CC(C(F)(F)F)CC(C(F)(F)F)C3)c2Cl)cc1 (centres unmarked) [I-1218]
16,6.32[a],COc1ccc(CNc2nsc(C(=O)NC3C(C(C)C)CCCC3C(C)C)c2Cl)cc1 (centres unmarked) [I-1219]
17,3.41[a],COc1ccc(CNc2nsc(C(=O)NC3(C#N)CCCC3C)c2Cl)cc1 (centres unmarked) [I-1220]
